The test has as its target Trx-6×His-BCL6 (human BCL6 BTB domain covering amino-acid sequence 5-129) (Homo sapiens (Human), UniProt P41182). As to the kind of experiment: HTRF in vitro assay (BCL6 / BCOR-AF633 peptide). It is filed as binding. As to conditions: for activity in the HTRF assay: result in words. As for the experimental part:
The % inhibition at each concentration was calculated by normalising FRET ratio to the appropriate high (DMSO with all reagents) and low (DMSO without BCL6) controls.
(TR-FRET usually uses a lanthanide donor and a delayed reading to cut background.)

The mark [1] stands for this setting: further generated data, 1 nM Trx-6×His-BCL6, 300 nM BCOR-AF633 peptide, 0.5 nM anti-6×His-Terbium cryptate.
Setting [2] is: initially generated data, 10 nM Trx-6×His-BCL6, 300 nM BCOR-AF633 peptide, 1 nM anti-6×His-Terbium cryptate.

For the molecule `CN1CCC[C@@H]1Cn1c(=O)n(C)c2ccc(Nc3ccnc(Cl)c3C#N)cc21` [(R)-2-chloro-4-((1-methyl-3-((1-methylpyrrolidin-2-yl)methyl)-2-oxo-2,3-dihydro-1H-benzo[d]imidazol-5-yl)amino)nicotinonitrile], the “activity in the HTRF assay” value is “did not exhibit the desired activity”.
On the same count and under the same terms, next, `Cn1c(=O)n(C[C@@H]2CCCN2CC2CC2)c2cc(Nc3ccnc(Cl)c3C#N)ccc21` [(S)-2-chloro-4-((3-((1-(cyclopropylmethyl)pyrrolidin-2-yl)methyl)-1-methyl-2-oxo-2,3-dihydro-1H-benzo[d]imidazol-5-yl)amino)nicotinonitrile]: “did not exhibit the desired activity”.
With `Cn1c(=O)n(C)c2cc(Nc3cc(C(=O)O)nc(Cl)c3C#N)ccc21` [Example 1c, 6-chloro-5-cyano-4-[(1,3-dimethyl-2-oxo-benzimidazol-5-yl)amino]pyridine-2-carboxylic acid], the “HTRF pIC50” value runs as follows: under setting [1], 6.08; under setting [2], 6.05.
`CNC(=O)c1cc(Nc2ccc3c(c2)n(CC[C@H](C)n2cccn2)c(=O)n3C)c(C#N)c(Cl)n1` [Example 1d, 6-chloro-5-cyano-N-methyl-4-[[1-methyl-2-oxo-3-[(3S)-3-pyrazol-1-ylbutyl]benzimidazol-5-yl]amino]pyridine-2-carboxamide]: the “HTRF pIC50” value under setting [2] was 6.04.
As for `C[C@@H](O)CCn1c(=O)n(C)c2ccc(Nc3cc(C(=O)O)nc(Cl)c3C#N)cc21` [Example 1e, 6-chloro-5-cyano-4-[[3-[(3R)-3-hydroxybutyl]-1-methyl-2-oxo-benzimidazol-5-yl]amino]pyridine-2-carboxylic acid], the “HTRF pIC50” value under setting [2] is recorded as 6.01.
Consider `CNC(=O)c1cc(Nc2ccc3c(c2)[nH]c(=O)n3C)c(C#N)c(Cl)n1` [Example 1f, 6-chloro-5-cyano-N-methyl-4-[(1-methyl-2-oxo-3H-benzimidazol-5-yl)amino]pyridine-2-carboxamide], for which the “HTRF pIC50” value is reported as 5.59 under setting [1] and 5.84 under setting [2].
As to `CNC(=O)c1cc(Nc2ccc3c(c2)n(CCC(C)(C)O)c(=O)n3CC2CCOCC2)c(C#N)c(Cl)n1` [Example 1g, 6-chloro-5-cyano-4-[[3-(3-hydroxy-3-methyl-butyl)-2-oxo-1-(tetrahydropyran-4-ylmethyl)benzimidazol-5-yl]amino]-N-methyl-pyridine-2-carboxamide], the “HTRF pIC50” value under setting [1] is reported as 5.95 and the “HTRF pIC50” value under setting [2] worked out at 5.82.
The like results for `CCOC(=O)c1cc(Nc2ccc3c(c2)n(CCC(C)(C)O)c(=O)n3C)n2nccc2n1` [Example 1h, Ethyl 7-[[3-(3-hydroxy-3-methyl-butyl)-1-methyl-2-oxo-benzimidazol-5-yl]amino]pyrazolo[1,5-a]pyrimidine-5-carboxylate] were, in that order, 5.94 and 5.79.
In the case of `Cn1c(=O)n(CCC(C)(C)O)c2cc(Nc3ccnc(Cl)c3C#N)ccc21` [Example 1i, 2-chloro-4-[[3-(3-hydroxy-3-methyl-butyl)-1-methyl-2-oxo-benzimidazol-5-yl]amino]pyridine-3-carbonitrile], the “HTRF pIC50” value is, setting by setting: under setting [1], 6.08; under setting [2], 5.77.
Taken in the same sequence, the figures for `COC(=O)C(C)CCn1c(=O)n(C)c2ccc(Nc3ccnc(Cl)c3C#N)cc21` (stereo not drawn) [Example 1j, Methyl 4-[6-[(2-chloro-3-cyano-4-pyridyl)amino]-3-methyl-2-oxo-benzimidazol-1-yl]-2-methyl-butanoate] were 5.78 and 5.67.
The like results for `Cn1c(=O)n(CCC(C)(C)O)c2cc(Nc3ccnc(Br)c3C#N)ccc21` [Example 1k, 2-bromo-4-[[3-(3-hydroxy-3-methyl-butyl)-1-methyl-2-oxo-benzimidazol-5-yl]amino]pyridine-3-carbonitrile] were, in that order, 5.82 and 5.63.
`Cc1cc(Nc2ccc3c(c2)n(CC[C@@H](C)O)c(=O)n3C)c(C#N)c(Cl)n1` [Example 1l, 2-chloro-4-[[3-[(3R)-3-hydroxybutyl]-1-methyl-2-oxo-benzimidazol-5-yl]amino]-6-methyl-pyridine-3-carbonitrile]: the “HTRF pIC50” value runs as follows: under setting [1], 5.53; under setting [2], 5.62.
Taken in the same sequence, the figures for `C[C@@H](O)CCn1c(=O)n(C)c2ccc(Nc3cc(Cl)ncc3Cl)cc21` [Example 1m, 5-[(2,5-dichloro-4-pyridyl)amino]-3-[(3R)-3-hydroxybutyl]-1-methyl-benzimidazol-2-one] were 5.47 and 5.62.
Taken in the same sequence, the figures for `CCOC(=O)c1cc(Nc2ccc3c(c2)n(CC[C@@H](C)O)c(=O)n3C)n2nccc2n1` [Example 1o, Ethyl 7-[[3-[(3R)-3-hydroxybutyl]-1-methyl-2-oxo-benzimidazol-5-yl]amino]pyrazolo[1,5-a]pyrimidine-5-carboxylate] were 5.48 and 5.58.
Consider `C[C@@H](O)CCn1c(=O)n(C)c2ccc(Nc3ccnc(Cl)c3Cl)cc21` [Example 1q, 5-[(2,3-dichloro-4-pyridyl)amino]-3-[(3R)-3-hydroxybutyl]-1-methyl-benzimidazol-2-one], for which the “HTRF pIC50” value runs as follows: under setting [1], 5.45; under setting [2], 5.49.
Taken in the same sequence, the figures for `CCOC(=O)c1cc(Nc2ccc3c(c2)n(CC(O)CC)c(=O)n3C)n2ncc(F)c2n1` (stereo not drawn) [Example 1r, Ethyl 3-fluoro-7-((3-(2-hydroxybutyl)-1-methyl-2-oxo-2,3-dihydro-1H-benzo[d]imidazol-5-yl)amino)pyrazolo[1,5-a]pyrimidine-5-carboxylate] were 5.91 and 5.39.
Consider `COC(=O)c1cc(Nc2ccc3c(c2)n(CCC(C)C(=O)OC)c(=O)n3C)c(C#N)c(Cl)n1` (stereo not drawn) [Example 2a, Methyl 6-chloro-5-cyano-4-[[3-(4-methoxy-3-methyl-4-oxo-butyl)-1-methyl-2-oxo-benzimidazol-5-yl]amino]pyridine-2-carboxylate], for which the “HTRF pIC50” value under setting [1] was 6.18 and the “HTRF pIC50” value under setting [2] is given as 6.41.
Taken in the same sequence, the figures for `CCOC(=O)c1cc(Nc2ccc3c(c2)n(CCC(C)C(=O)OC)c(=O)n3C)c(C#N)c(Cl)n1` (stereo not drawn) [Example 2b, Ethyl 6-chloro-5-cyano-4-[[3-(4-methoxy-3-methyl-4-oxo-butyl)-1-methyl-2-oxo-benzimidazol-5-yl]amino]pyridine-2-carboxylate] were 6.10 and 6.19.
`COC(=O)C(C)CCn1c(=O)n(C)c2ccc(Nc3cc(C(=O)OC(C)C)nc(Cl)c3C#N)cc21` (stereo not drawn) [Example 2c, Isopropyl 6-chloro-5-cyano-4-[[3-(4-methoxy-3-methyl-4-oxo-butyl)-1-methyl-2-oxo-benzimidazol-5-yl]amino]pyridine-2-carboxylate]: the “HTRF pIC50” value under setting [2] is reported as 6.10.
On to `CCOC(=O)c1cc(Nc2ccc3c(c2)n(CC[C@@H](C)O)c(=O)n3C)c(C#N)c(Cl)n1` [Example 2d, Ethyl 6-chloro-5-cyano-4-[[3-[(3R)-3-hydroxybutyl]-1-methyl-2-oxo-benzimidazol-5-yl]amino]pyridine-2-carboxylate], for which the “HTRF pIC50” value under setting [1] was 5.87 and the “HTRF pIC50” value under setting [2] came to 6.17.
Regarding `COC(=O)C(C)CCn1c(=O)n(C)c2ccc(Nc3cc(C(=O)O)nc(Cl)c3C#N)cc21` (stereo not drawn) [Example 3a, 6-Chloro-5-cyano-4-[[3-(4-methoxy-3-methyl-4-oxo-butyl)-1-methyl-2-oxo-benzimidazol-5-yl]amino]pyridine-2-carboxylic acid], the “HTRF pIC50” value is, setting by setting: under setting [1], 5.93; under setting [2], 6.21.
Taken in the same sequence, the figures for `COC(=O)C(C)Cn1c(=O)n(C)c2ccc(Nc3ccnc(Cl)c3C#N)cc21` (stereo not drawn) [Example 3b, Methyl 3-[6-[(2-chloro-3-cyano-4-pyridyl)amino]-3-methyl-2-oxo-benzimidazol-1-yl]-2-methyl-propanoate] were 5.35 and 5.39.
Regarding `COC(=O)C(C)CCn1c(=O)n(C)c2ccc(Nc3nc(C)ncc3Cl)cc21` (stereo not drawn) [Example 3c, Methyl 4-[6-[(5-chloro-2-methyl-pyrimidin-4-yl)amino]-3-methyl-2-oxo-benzimidazol-1-yl]-2-methyl-butanoate], the “HTRF pIC50” value is listed as 5.37 under setting [1] and 5.37 under setting [2].
As to `COC(=O)C(C)CCn1c(=O)n(C)c2ccc(Nc3cc(-c4nc(C)no4)nc(Cl)c3C#N)cc21` (stereo not drawn) [Example 5, Methyl 4-[6-[[2-chloro-3-cyano-6-(3-methyl-1,2,4-oxadiazol-5-yl)-4-pyridyl]amino]-3-methyl-2-oxo-benzimidazol-1-yl]-2-methyl-butanoate], the “HTRF pIC50” value stood at 6.19 under setting [1] and 5.99 under setting [2].
Taken in the same sequence, the figures for `COC(=O)[C@@H](N)CCn1c(=O)n(C)c2ccc(Nc3ccnc(Cl)c3C#N)cc21` [Example 6, Methyl (2S)-2-amino-4-[6-[(2-chloro-3-cyano-4-pyridyl)amino]-3-methyl-2-oxo-benzimidazol-1-yl]butanoate] were 6.00 and 5.97.
The like results for `CNC(=O)c1cc(Nc2ccc3c(c2)n(CCC(C)C(=O)OC)c(=O)n3C)c(C#N)c(Cl)n1` (stereo not drawn) [Example 7a, Methyl 4-[6-[[2-chloro-3-cyano-6-(methylcarbamoyl)-4-pyridyl]amino]-3-methyl-2-oxo-benzimidazol-1-yl]-2-methyl-butanoate] were, in that order, 6.09 and 5.97.
Consider `C#CCCNC(=O)c1cc(Nc2ccc3c(c2)n(CCC(C)C(=O)OC)c(=O)n3C)c(C#N)c(Cl)n1` (stereo not drawn) [Example 7b, Methyl 4-[6-[[6-(but-3-ynylcarbamoyl)-2-chloro-3-cyano-4-pyridyl]amino]-3-methyl-2-oxo-benzimidazol-1-yl]-2-methyl-butanoate], for which the “HTRF pIC50” value under setting [2] came to 5.84.

The record behind these values is patent US12110286B2, “Benzimidazolone derived inhibitors of BCL6” (Cancer Research Technology Limited, priority 2017, dated 2024).
